Test results: patent publication US7217703B2, “8-(2-hydroxyphenoxy)octyldiethanolamine and salts thereof for delivery of active agents” (Emisphere Technologies, Inc., priority 2004, dated 2007)

Assay: Oral absorption of Ibandronate in rats (urine Ibandronate, 16 h collection, GC/MS)
Assay type: in vivo, male Sprague-Dawley rats
Details: oral gavage, rat, urine 0-16 h post-dosing
Method: Oral absorption studies were performed in rats to evaluate the delivery of the bisphosphonate, Ibandronate, when co-administered with a delivery agent compound of the present invention. Sprague-Dawley rats were administered Ibandronate alone or in combination with a delivery agent compound by oral gavage. Urine samples were collected up to 16 hours post-dosing for Ibandronate quantitations. […]
Urine Ibandronate levels from treated rats were determined using a GC/MS method with a standard calibration range of 0–2000 ng/mL and a limit of quantitation (LOQ) of 2.5 ng/ml. Quality control (QC) samples were prepared fresh daily and were analyzed with samples from treated rats. […]
The amount of Ibandronate excreted in the urine is the dose response and was plotted as a straight line against the Ibandronate dose (linear dose-response relationship was assumed). The relative potency of the four delivery agent-containing Ibandronate formulations were calculated against the control formulations (without delivery agent) using a Student's t-test. […]

Mean urine Ibandronate concentration (Ibandronate 5 mg/kg alone): 426.8
Mean urine Ibandronate concentration (Ibandronate 15 mg/kg alone): 4157.5
Structure (SMILES): CCCCCN(C)CCC(O)(P(=O)(O)O)P(=O)(O)O [Ibandronate]
